Measured values reported in US6841519B1, “Isoxazoline derivatives and herbicides containing the same as the active ingredient” (Kumiai Chemical Industry Co., Ltd., priority 1999, dated 2005).

Experiments:
Format in all cases: in vivo
[1] = tested on: Echinochloa crus-galli (L.) Beauv. var. crusgalli (Ec); test: Test for herbicidal effect by upland foliage treatment (Test Example 3); conditions: 100 g/10 a active ingredient, examined at 14th day
In short: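 Scored 14 days post-spray against a graded standard: greenhouse-grown Ec, 2 weeks old in upland soil, received whole-foliage application of diluted wettable powder (100 g active ingredient per 10 ares, spray volume 100 L per 10 ares).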

[2] = tested on: Echinochloa oryzicola Vasing. (Eo); test: Test for herbicidal effect by paddy field soil treatment (Test Example 1); conditions: application amount (active ingredient) 100 g/10 a, examined at the 21st day from the treatment, index per Table 40
In short: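 Scored on a standard scale at day 21 in the greenhouse: herbicidal effect of wettable powder applied to flooded water (3 cm depth) at 100 g a.i./10 ares, one day after sowing Eo into puddled paddy soil.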

[3] = tested on: Setaria viridis (L.) Beauv. (Se); test: Test for herbicidal effect by upland field soil treatment (Test Example 2), Se
In short: (§1)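 Pre-emergence soil treatment: wettable powder diluted in water and sprayed on soil just sown with Ec and Se seeds, delivering 100 g active ingredient per 10 ares in 100 liters per 10 ares. Herbicidal effect was rated against a fixed scale 21 days later, after greenhouse growth.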

[4] = tested on: Echinochloa crus-galli (L.) Beauv. var. crusgall (Ec); test: Test for herbicidal effect by upland field soil treatment (Test Example 2), Ec
In short: as §1

[5] = application amount (active ingredient) 100 g/10 a, examined at the 21st day from the treatment, index per Table 40
[6] = 100 g/10 a active ingredient, examined at 21st day

SMILES | Herbicidal effect to Ec [1] | Herbicidal effect to Eo [2] | Herbicidal effect to Se [3, 5] | Herbicidal effect to Ec [4, 5] | Herbicidal effect to Se [3, 6] | Herbicidal effect to Ec [4, 6]
CCC1(C)CC(S(=O)(=O)Cc2ccccc2Cl)=NO1 (centres unmarked) [Compound 1-192] | 4 (A herbicidal effect or phytotoxicity of 70% to less than 90%) | 5 (A herbicidal effect or phytotoxicity of 90% or more) | 5 (A herbicidal effect or phytotoxicity of 90% or more) | 5 (A herbicidal effect or phytotoxicity of 90% or more) |  | 
Cc1cccc(CS(=O)(=O)C2=NOC(C)(C)C2)c1 [Compound 1-6] | 4 (A herbicidal effect or phytotoxicity of 70% to less than 90%) | 5 (A herbicidal effect or phytotoxicity of 90% or more) | 5 (A herbicidal effect or phytotoxicity of 90% or more) | 5 (A herbicidal effect or phytotoxicity of 90% or more) |  | 
CC1(C)CC(S(=O)(=O)Cc2ccc(F)cc2Cl)=NO1 [Compound 1-538] | 5 (A herbicidal effect or phytotoxicity of 90% or more) | 5 (A herbicidal effect or phytotoxicity of 90% or more) |  |  | 5 (A herbicidal effect or phytotoxicity of 90% or more) | 5 (A herbicidal effect or phytotoxicity of 90% or more)
CC1(C)CC(S(=O)(=O)Cc2ccccc2S(=O)(=O)C(F)(F)F)=NO1 [Compound 1-517] | 5 (A herbicidal effect or phytotoxicity of 90% or more) | 5 (A herbicidal effect or phytotoxicity of 90% or more) |  |  | 5 (A herbicidal effect or phytotoxicity of 90% or more) | 5 (A herbicidal effect or phytotoxicity of 90% or more)
CC1(C)CC(S(=O)(=O)Cc2ccc(F)cc2F)=NO1 [Compound 1-505] | 5 (A herbicidal effect or phytotoxicity of 90% or more) | 5 (A herbicidal effect or phytotoxicity of 90% or more) |  |  | 5 (A herbicidal effect or phytotoxicity of 90% or more) | 5 (A herbicidal effect or phytotoxicity of 90% or more)
CC1(C)CC(S(=O)(=O)Cc2ccccc2S(C)(=O)=O)=NO1 [Compound 1-106] | 4 (A herbicidal effect or phytotoxicity of 70% to less than 90%) | 5 (A herbicidal effect or phytotoxicity of 90% or more) | 5 (A herbicidal effect or phytotoxicity of 90% or more) | 5 (A herbicidal effect or phytotoxicity of 90% or more) |  | 
CCC1(C)CC(S(=O)(=O)Cc2ccccc2C)=NO1 (centres unmarked) [Compound 1-201] | 5 (A herbicidal effect or phytotoxicity of 90% or more) | 5 (A herbicidal effect or phytotoxicity of 90% or more) | 5 (A herbicidal effect or phytotoxicity of 90% or more) | 5 (A herbicidal effect or phytotoxicity of 90% or more) |  | 
CC1(C)CC(S(=O)(=O)Cc2cccc(Cl)c2F)=NO1 [Compound 1-184] | 4 (A herbicidal effect or phytotoxicity of 70% to less than 90%) | 5 (A herbicidal effect or phytotoxicity of 90% or more) | 4 (A herbicidal effect or phytotoxicity of 70% to less than 90%) | 5 (A herbicidal effect or phytotoxicity of 90% or more) |  | 
CCOCc1ccccc1CS(=O)(=O)C1=NOC(C)(C)C1 [Compound 1-586] | 5 (A herbicidal effect or phytotoxicity of 90% or more) | 5 (A herbicidal effect or phytotoxicity of 90% or more) |  |  | 5 (A herbicidal effect or phytotoxicity of 90% or more) | 5 (A herbicidal effect or phytotoxicity of 90% or more)
Cc1ccc(CS(=O)(=O)C2=NOC(C)(C)C2)c(C)c1 [Compound 1-511] | 5 (A herbicidal effect or phytotoxicity of 90% or more) | 5 (A herbicidal effect or phytotoxicity of 90% or more) |  |  | 5 (A herbicidal effect or phytotoxicity of 90% or more) | 5 (A herbicidal effect or phytotoxicity of 90% or more)
CC1(C)CC(S(=O)(=O)Cc2ccccc2OC2CCCC2)=NO1 [Compound 1-609] | 5 (A herbicidal effect or phytotoxicity of 90% or more) | 5 (A herbicidal effect or phytotoxicity of 90% or more) |  |  | 5 (A herbicidal effect or phytotoxicity of 90% or more) | 5 (A herbicidal effect or phytotoxicity of 90% or more)
CC1(C)CC(S(=O)(=O)Cc2cc(F)cc(F)c2F)=NO1 [Compound 1-508] | 4 (A herbicidal effect or phytotoxicity of 70% to less than 90%) | 5 (A herbicidal effect or phytotoxicity of 90% or more) |  |  | 5 (A herbicidal effect or phytotoxicity of 90% or more) | 5 (A herbicidal effect or phytotoxicity of 90% or more)
CC1(C)CC(S(=O)(=O)Cc2ccc(Cl)c(Cl)c2)=NO1 [Compound 1-491] | 4 (A herbicidal effect or phytotoxicity of 70% to less than 90%) | 5 (A herbicidal effect or phytotoxicity of 90% or more) | 5 (A herbicidal effect or phytotoxicity of 90% or more) | 5 (A herbicidal effect or phytotoxicity of 90% or more) |  | 
CC1(C)CC(S(=O)(=O)Cc2c(Br)cccc2Br)=NO1 [Compound 1-554] | 5 (A herbicidal effect or phytotoxicity of 90% or more) | 5 (A herbicidal effect or phytotoxicity of 90% or more) |  |  | 5 (A herbicidal effect or phytotoxicity of 90% or more) | 5 (A herbicidal effect or phytotoxicity of 90% or more)
CCCOc1cccc(Cl)c1CS(=O)(=O)C1=NOC(C)(C)C1 [Compound 1-565] | 4 (A herbicidal effect or phytotoxicity of 70% to less than 90%) | 5 (A herbicidal effect or phytotoxicity of 90% or more) |  |  | 5 (A herbicidal effect or phytotoxicity of 90% or more) | 5 (A herbicidal effect or phytotoxicity of 90% or more)
CC1C(S(=O)(=O)Cc2c(F)cccc2F)=NOC1(C)C (centres unmarked) [Compound 1-495] | 5 (A herbicidal effect or phytotoxicity of 90% or more) | 5 (A herbicidal effect or phytotoxicity of 90% or more) | 5 (A herbicidal effect or phytotoxicity of 90% or more) | 5 (A herbicidal effect or phytotoxicity of 90% or more) |  | 
Cc1c(CS(=O)(=O)C2=NOC(C)(C)C2)cccc1[N+](=O)[O-] [Compound 1-537] | 4 (A herbicidal effect or phytotoxicity of 70% to less than 90%) | 5 (A herbicidal effect or phytotoxicity of 90% or more) |  |  | 5 (A herbicidal effect or phytotoxicity of 90% or more) | 5 (A herbicidal effect or phytotoxicity of 90% or more)
CC1(C2CC2)CC(S(=O)(=O)Cc2c(F)cccc2F)=NO1 (centres unmarked) [Compound 1-378] | 5 (A herbicidal effect or phytotoxicity of 90% or more) | 5 (A herbicidal effect or phytotoxicity of 90% or more) | 5 (A herbicidal effect or phytotoxicity of 90% or more) | 5 (A herbicidal effect or phytotoxicity of 90% or more) |  | 
Cc1cccc(C)c1CS(=O)(=O)C1=NOC(C)(C)C1 [Compound 1-185] | 5 (A herbicidal effect or phytotoxicity of 90% or more) | 5 (A herbicidal effect or phytotoxicity of 90% or more) | 5 (A herbicidal effect or phytotoxicity of 90% or more) | 5 (A herbicidal effect or phytotoxicity of 90% or more) |  | 
CC1(C)CC(S(=O)(=O)Cc2ccccc2Br)=NO1 [Compound 1-35] | 4 (A herbicidal effect or phytotoxicity of 70% to less than 90%) | 5 (A herbicidal effect or phytotoxicity of 90% or more) | 5 (A herbicidal effect or phytotoxicity of 90% or more) | 5 (A herbicidal effect or phytotoxicity of 90% or more) |  | 
CC1(C)CC(S(=O)(=O)Cc2cc(F)c(F)c(F)c2)=NO1 [Compound 1-509] | 4 (A herbicidal effect or phytotoxicity of 70% to less than 90%) | 5 (A herbicidal effect or phytotoxicity of 90% or more) |  |  | 5 (A herbicidal effect or phytotoxicity of 90% or more) | 5 (A herbicidal effect or phytotoxicity of 90% or more)
COc1cccc(Cl)c1CS(=O)(=O)C1=NOC(C)(C)C1 [Compound 1-563] | 4 (A herbicidal effect or phytotoxicity of 70% to less than 90%) | 5 (A herbicidal effect or phytotoxicity of 90% or more) |  |  | 5 (A herbicidal effect or phytotoxicity of 90% or more) | 5 (A herbicidal effect or phytotoxicity of 90% or more)
O=S(=O)(Cc1c(F)cccc1F)C1=NOC2(CCCC2)C1 [Compound 1-383] | 4 (A herbicidal effect or phytotoxicity of 70% to less than 90%) | 5 (A herbicidal effect or phytotoxicity of 90% or more) | 4 (A herbicidal effect or phytotoxicity of 70% to less than 90%) | 5 (A herbicidal effect or phytotoxicity of 90% or more) |  | 
